The nature of data set [1]: Blood drug concentration analysis by LC-MS/MS after IV dosing with anti-cotinine antibody (Example 201). It is filed as in vivo. The note with it: C57 background, human CCR2 knock-in, mouse; hCCR2 knock-in mice, IV 0.1 mpk compound + 10 mpk anti-cotinine antibody, whole blood, 48 hours post-dose; read-out: Exposure of Compound of Formula (I) 48 hours post-dose. How it is done:
After bleeding, each mouse was sacrificed by cervical dislocation. […] Flow Cytometry Analysis:
Samples were analyzed on Q-Trap. […] The total run time was 2 minutes.

The target of data set [2] is anti-cotinine antibody (SEQ ID NO: 11/12, rabbit version). Kind of data set: SPR binding of anti-cotinine antibody to ARM compounds, Biacore 8k, 25° C., rabbit antibody (Example 202). The source says:
(§1) Anti-cotinine antibodies having a heavy chain sequence of SEQ ID NO: 9 and a light chain sequence of SEQ ID NO: 10 (humanized version) or a heavy chain sequence of SEQ ID NO: 11 and a light chain sequence of SEQ ID NO: 12 (rabbit version) were captured via the Fc domain to a protein A or A/G surface on flow cell 2 of a CMS sensor chip using the Biacore 8k.
(§2) After antibody capture, a 1500 second wait step was included to reduce drift in the binding step. ARM compounds of Formula (I) were then flowed over the captured antibodies at varying top concentrations ranging from 250 nM to 4 μM (see Table 6 below for top concentration values). The top concentration was diluted 4-fold over 5 dilutions (with a 0 nM compound cycle included to blank subtract the data). Association and dissociation times of the ARMs compounds of Formula (I) varied between experiments as follows and indicated in Table 6 below: reference 1-association for 600 seconds and dissociation for 1200 seconds at 20 μl/min; reference 2-association for 240 seconds and dissociation for 300 seconds at 30 μl/min; reference 3-association for 360 seconds and dissociation for 600 seconds at 30 μl/min. Anti-cotinine antibody bound to the protein A or A/G surface was regenerated using 50 mM NaOH. Experiments were run at 25° C. at pH 7.4 using HBS-EP+ buffer using Biacore 8K control software and evaluated using Biacore Insight Evaluation software. Curves were fit with the 1:1 kinetic fit inherent to the software, utilising a local Rmax and local drift setting.
(§3) Anti-cotinine antibody was tested for binding to ARMs compounds of Formula (I) of the invention in the above assay in or more experimental runs and the results are shown in Table 6 below. Affinity is reported as a pKd value. The pKd value is the negative log of the Kd value, wherein the Kd value is the dissociation constant measured in molar (M) as noted above. For compounds tested in more than one experimental run, the pKd value is reported as an average.

For data set [3], the system named is anti-cotinine antibody (SEQ ID NO: 9/10, humanized version). Kind of data set: SPR binding of anti-cotinine antibody to ARM compounds, Biacore 8k, 25° C., humanized antibody (Example 202).
Source text: as §1, §2, §3
(Surface plasmon resonance follows binding to a sensor surface in real time, without labels.)

Data set [4] can be described thus: Alternative dosing strategy (Example 206): blood concentration of small molecule ARM compound. The format is in vivo. The conditions noted are these: co-dosed vs sequentially dosed intravenously with anti-cotinine antibody. The source says: FIG. 5: Alternative dosing strategy of small molecule ARM compound to anti-cotinine antibody, as described in Example 206, with anti-cotinine antibody administered intravenously and ARM compound (Example 1) administered subcutaneously following a 2-hour delay from antibody dosing at various molar ratios of small molecule ARM: antibody; data shown is blood concentration of small molecule ARM compound at various timepoints following administration.

Another data set has as its system CCR2+ expressing cells. Description: Alternative dosing strategy (Example 206): percent depletion of CCR2+ expressing cells by flow cytometry. It is filed as in vivo. The note with it: co-dosed vs sequentially dosed intravenously with anti-cotinine antibody. (In general: Flow cytometry measures light scatter and fluorescence of single cells or particles in a stream.)

Where [5] appears, read: time reference 3 (association 360 s, dissociation 600 s, 30 μl/min).

Where “and” joins values, the source holds several entries; their conditions need not be identical. Equal values may be shown once.

On to `CN1C(=O)C[C@H](C(=O)NCCOCCNC(=O)[C@H]2C[C@H](NC(=O)CCOCCC(=O)N[C@@H]3C[C@H](NC(C)(C)C)CC[C@@H]3N3CC[C@H](Nc4ncnc5ccc(C(F)(F)F)cc45)C3=O)C2)[C@H]1c1cccnc1` [Example 188, (2S,3S)-N-(2-(2-((1R,3S)-3-(3-(3-(((1R,2S,5R)-5-(tert-butylamino)-2-((S)-2-oxo-3-((6-(trifluoromethyl)quinazolin-4-yl)amino)pyrrolidin-1-yl)cyclohexyl)amino)-3-oxopropoxy)propanamido)cyclobutane-1-carboxamido)ethoxy)ethyl)-1-methyl-5-oxo-2-(pyridin-3-yl)pyrrolidine-3-carboxamide], for which, in data set [1], the concentration at 48 h is 73 ng/mL.
On to `CN1C(=O)C[C@H](C(=O)NCCOCCOCCOCCOCCOCCC(=O)N[C@@H]2C[C@H](NC(C)(C)C)CC[C@@H]2N2CC[C@H](Nc3ncnc4ccc(C(F)(F)F)cc34)C2=O)[C@H]1c1cccnc1` [Example 37, (2S,3S)-N-(18-(((1R,2S,5R)-5-(tert-Butylamino)-2-((S)-2-oxo-3-((6-(trifluoromethyl)quinazolin-4-yl)amino)pyrrolidin-1-yl)cyclohexyl)amino)-18-oxo-3,6,9,12,15-pentaoxaoctadecyl)-1-methyl-5-oxo-2-(pyridin-3-yl)pyrrolidine-3-carboxamide], for which, in data set [1], the concentration at 48 h amounted to 48.7 ng/mL.
For `CC(C)N(C)[C@@H]1CC[C@H](N2CC[C@H](Nc3ncnc4ccc(C(F)(F)F)cc34)C2=O)[C@H](NC2CCN(C(=O)CCOCCOCCOCCOCCNC(=O)[C@H]3CC(=O)N(C)[C@@H]3c3cccnc3)CC2)C1` [Example 69, (2S,3S)-N-(15-(4-(((1R,2S,5R)-5-(Isopropyl(methyl)amino)-2-((S)-2-oxo-3-((6-(trifluoromethyl)quinazolin-4-yl)amino)pyrrolidin-1-yl)cyclohexyl)amino)piperidin-1-yl)-15-oxo-3,6,9,12-tetraoxapentadecyl)-1-methyl-5-oxo-2-(pyridin-3-yl)pyrrolidine-3-carboxamide], the concentration at 48 h in data set [1] amounted to 39.9 ng/mL.
On the same count and under the same terms, for `CN1C(=O)C[C@H](C(=O)NCCOCCOCCOCCOCCOCCOCCC(=O)N[C@@H]2C[C@H](NC(C)(C)C)CC[C@@H]2N2CC[C@H](Nc3ncnc4ccc(C(F)(F)F)cc34)C2=O)[C@H]1c1cccnc1` [Example 38, (2S,3S)-N-(21-(((1R,2S,5R)-5-(tert-Butylamino)-2-((S)-2-oxo-3-((6-(trifluoromethyl)quinazolin-4-yl)amino)pyrrolidin-1-yl)cyclohexyl)amino)-21-oxo-3,6,9,12,15,18-hexaoxahenicosyl)-1-methyl-5-oxo-2-(pyridin-3-yl)pyrrolidine-3-carboxamide] the value was 47.6 ng/mL.
The pKd is the negative decadic logarithm of the Kd, by convention in mol/L. Take `CN1C(=O)C[C@H](C(=O)NCCO[C@H]2CC[C@H](OCCCC(=O)N[C@H]3CC[C@H](C(=O)N[C@@H]4C[C@H](NC(C)(C)C)CC[C@@H]4N4CC[C@H](Nc5ncnc6ccc(C(F)(F)F)cc56)C4=O)CC3)CC2)[C@H]1c1cccnc1` [Example 10, (2S,3S)-N-(2-(((1R,4S)-4-(4-(((1R,4R)-4-(((1R,2S,5R)-5-(tert-Butylamino)-2-((S)-2-oxo-3-((6-(trifluoromethyl)quinazolin-4-yl)amino)pyrrolidin-1-yl)cyclohexyl)carbamoyl)cyclohexyl)amino)-4-oxobutoxy)cyclohexyl)oxy)ethyl)-1-methyl-5-oxo-2-(pyridin-3-yl)pyrrolidine-3-carboxamide]: the pKd entry is listed as “Poor fit” in data set [2] (time reference 2 (association 240 s, dissociation 300 s, 30 μl/min)); “kd outside” in data set [2] (setting [5]); 9.47 in data set [3] (setting [5]). In addition, the ka in data set [3] (setting [5]) was found to be 1.42e+06 M⁻¹ s⁻¹. For the same compound, the kd in data set [3] (setting [5]) was 0.000484 s⁻¹.
In the case of `CC(C)N(C)[C@@H]1CC[C@H](N2CC[C@H](Nc3ncnc4ccc(C(F)(F)F)cc34)C2=O)[C@H](NC(=O)[C@H]2CC[C@H](NC(=O)CCCO[C@H]3CC[C@H](OCCNC(=O)[C@H]4CC(=O)N(C)[C@@H]4c4cccnc4)CC3)CC2)C1` [Example 1, (2S,3S)-N-(2-(((1R,4S)-4-(4-(((1R,4R)-4-(((1R,2S,5R)-5-(Isopropyl(methyl)amino)-2-((S)-2-oxo-3-((6-(trifluoromethyl)quinazolin-4-yl)amino)pyrrolidin-1-yl)cyclohexyl)carbamoyl)cyclohexyl)amino)-4-oxobutoxy)cyclohexyl)oxy)ethyl)-1-methyl-5-oxo-2-(pyridin-3-yl)pyrrolidine-3-carboxamide], the “PK (blood concentration of small molecule ARM compound)” value in data set [4] is listed as “unchanged”. The ka in data set [2] (setting [5]) is 5.57e+06 M⁻¹ s⁻¹; in data set [3] (setting [5]) it was 1.64e+06 M⁻¹ s⁻¹. Also, the kd in data set [2] (setting [5]) is 0.000156 s⁻¹; in data set [3] (time reference 1 (association 600 s, dissociation 1200 s, 20 μl/min)), 0.000456 s⁻¹ and 0.000649 s⁻¹; in data set [3] (setting [5]) it was 0.000414 s⁻¹. In addition, the pKd came to 10.55 in data set [2] (setting [5]) and 9.6 in data set [3] (setting [5]). For the same compound, the “PD (percent depletion of CCR2+ expressing cells)” value in the data set with CCR2+ expressing cells was “unchanged”.

For the origin of these results see patent US12521393B2, “Cytotoxicity targeting chimeras for CCR2-expressing cells” (GLAXOSMITHKLINE INTELLECTUAL PROPERTY DEVELOPMENT LIMITED, priority 2021, dated 2026).
